Results on 14 compounds are retold here after patent US8440654B2, “Thieno- and furo-pyrimidine modulators of the histamine H4 receptor” (Janssen Pharmaceutica NV, priority 2007, dated 2013).

Where a name gives a salt, the structure may show the parent alone.

This experiment has as its target T1, human histamine H4 receptor (Homo sapiens, UniProt Q9H3N8).
T1 construct: expressed in transfected cells; host or cells: SK-N-MC cells or COS7 cells, transiently transfected with pH4R; membrane preparation
Nature of the experiment: Binding Assay on Recombinant Human Histamine H4 Receptor. To be noted: competition binding with 3H-histamine, membranes of SK-N-MC or COS7 cells transfected with human H4R; average of results obtained. The protocol: Biological Methods: Binding Assay on Recombinant Human Histamine H4 Receptor.
SK-N-MC cells or COS7 cells were transiently transfected with pH4R and grown in 150 cm^2 tissue culture dishes. Cells were washed with saline solution, scraped with a cell scraper and collected by centrifugation (1000 rpm, 5 min). Cell membranes were prepared by homogenization of the cell pellet in 20 mM Tris-HCl with a polytron tissue homogenizer for 10 sec at high speed. Homogenate was centrifuged at 1000 rpm for 5 min at 4° C. The supernatant was then collected and centrifuged at 20,000×g for 25 min at 4° C. The final pellet was resuspended in 50 mM Tris-HCl. Cell membranes were incubated with ^3H-histamine (5-70 nM) in the presence or absence of excess histamine (10,000 nM). Incubation occurred at room temperature for 45 min. Membranes were harvested by rapid filtration over Whatman GF/C filters and washed 4 times with ice-cold 50 mM Tris HCl. Filters were then dried, mixed with scintillant and counted for radioactivity. SK-N-MC or COS7 cells expressing human histamine H4 receptor were used to measure the affinity of binding of other compounds and their ability to displace ^3H-ligand binding by incubating the above-described reaction in the presence of various concentrations of inhibitor or compound to be tested. For competition binding studies using ^3H-histamine, K values were calculated, based on an experimentally determined KD value of 5 nM and a ligand concentration of 5 nM, according to Y.-C.

T1 sequence (Q9H3N8 whole entry): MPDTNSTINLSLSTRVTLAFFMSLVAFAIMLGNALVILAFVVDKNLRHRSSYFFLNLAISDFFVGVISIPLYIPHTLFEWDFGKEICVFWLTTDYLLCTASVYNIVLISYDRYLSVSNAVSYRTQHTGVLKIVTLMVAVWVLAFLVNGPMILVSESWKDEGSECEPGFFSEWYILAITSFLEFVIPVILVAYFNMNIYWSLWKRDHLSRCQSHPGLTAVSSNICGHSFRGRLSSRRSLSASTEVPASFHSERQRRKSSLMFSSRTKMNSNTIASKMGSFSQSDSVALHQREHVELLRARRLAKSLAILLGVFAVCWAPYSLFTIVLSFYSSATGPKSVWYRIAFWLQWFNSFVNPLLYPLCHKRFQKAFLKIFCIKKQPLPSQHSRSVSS

As to `Nc1nc(N2CC[C@H](N)C2)c2sc3c(c2n1)CC(F)(F)CC3` [Example 119, 4-[(3S)-3-Aminopyrrolidin-1-yl]-8,8-difluoro-6,7,8,9-tetrahydro[1]benzothieno[3,2-d]pyrimidin-2-amine hydrochloride], the Ki was 21 nM. Take `Nc1nc(N2CCN3CCCCC3C2)c2sc3c(c2n1)CCCC3` (centres unmarked) [Example 53, 4-(Octahydro-2H-pyrido[1,2-a]pyrazin-2-yl)-6,7,8,9-tetrahydro[1]benzothieno-3,2-d]pyrimidin-2-amine trifluoroacetic acid salt]: the Ki was 387 nM. Regarding `CN[C@@H]1CCN(c2nc(N)nc3c4c(oc23)CCC(F)(F)C4)C1` [Example 116, 8,8-Difluoro-4-[(3R)-3-(methylamino)pyrrolidin-1-yl]-6,7,8,9-tetrahydro[1]benzofuro[3,2-d]pyrimidin-2-amine hydrochloride], the inhibition constant (Ki) came out at 0.48 nM. For `CN1CCN(c2nc(N)nc3c4c(sc23)CCCCC4)CC1` [Example 46, 4-(4-Methylpiperazin-1-yl)-7,8,9,10-tetrahydro-6H-cyclohepta[4,5]thieno[3,2-d]pyrimidin-2-amine tri-fluoroacetic acid salt], the Ki amounted to 21 nM. Take `CNC1CCN(c2nc(N)nc3c(Br)csc23)C1` (stereo in doubt) [Example 14, 7-Bromo-4-(3R)-3-(methyl-amino)pyrrolidin-1-yl-d]pyrimidin-2-amine tri-fluoroacetic acid salt]: the Ki worked out at 1050 nM. For the compound `Nc1nc(N2C[C@H]3CCCN[C@H]3C2)c2oc3c(c2n1)CC(F)(F)CC3` [Example 124, 4-((R,R)-octahydropyrrolo[3,4-b]pyridin-6-yl)-8,8-difluoro-6,7,8,9-tetrahydro[1]benzofuro[3,2-d]pyrimidin-2-amine trifluoroacetate], the Ki amounted to 33 nM. For the compound `Nc1nc(N2CC(N)C2)c2sc3c(c2n1)CCCC3` [Example 42, 4-(3-Aminoazetidin-1-yl)-6,7,8,9-tetrahydro[1]benzo-thieno[3,2-d]pyrimidin-2-amine trifluoroacetic acid salt], the Ki was found to be 467 nM. For `Nc1nc(N2CC(N)C2)c2oc3c(c2n1)CC(F)(F)CC3` [Example 127, 4-(3-Aminoazetidin-1-yl)-8,8-difluoro-6,7,8,9-tetrahydro[1]benzofuro[3,2-d]pyrimidin-2-amine hydrochloride], the Ki is 64 nM. Take `CN(CCN)c1nc(N)nc2c3c(oc12)CCC(F)(F)C3` [Example 125, N^4-(2-Aminoethyl)-8,8-difluoro-N^4-methyl-6,7,8,9-tetrahydro[1]benzofuro[3,2-d]pyrimidine-2,4-diamine (free amine)]: the Ki came out at 150 nM. The same measure for `CN1CCN(c2nc(N)nc3c4c(sc23)CCCC4)CC1` [Example 2, 4-(4-Methyl-piperazin-1-yl)-6,7,8,9-tetrahydro-benzo[4,5]thieno[3,2-d]pyrimidin-2-ylamine]: 13 nM; for `NCCNc1nc(N)nc2c3c(oc12)CCCC3` [Example 25, N4-(2-Aminoethyl)-6,7,8,9-tetrahydro[1]benzofuro[3,2-d]pyrimidine-2,4-diamine trifluoroacetic acid salt]: 507 nM. With `CN[C@@H]1CN(c2nc(N)nc3c4c(sc23)CCCC4)C[C@@H]1O` [Example 38, (3S,4S)-1-(2-Amino-6,7,8,9-tetrahydro[1]benzothieno[3,2-d]pyrimidin-4-yl)-4-(methyl-amino)pyrrolidin-3-of tri-fluoroacetic acid salt], the Ki stood at 300 nM. The same measure for `c1nc(N2CCNCC2)c2sc3c(c2n1)CCCC3` [Example 11, 4-piperazin-1-yl-6,7,8,9-tetrahydro-benzo[4,5]thieno[3,2-d]pyrimidine]: 454 nM; for `NCCN1CCN(c2nc(N)nc3c4c(sc23)CCCC4)CC1` [Example 49, 4-[4-(2-Aminoethyl)piper-azin-1-yl]-6,7,8,9-tetrahy-dro[1]benzothieno[3,2-d]pyrimidin-2-amine tri-fluoroacetic acid salt]: 2260 nM.

One may read the Ki as the dissociation constant of the complex between target and ligand, obtained from inhibition or displacement.
